Values quoted from earlier work in patent publication US20030083286A1, “Bioadhesive compositions and methods for enhanced intestinal drug absorption” (priority 2001, published 2003).
Read-outs that look alike come from different tables or passages of the source. In the oligonucleotide strings, read from the 5' end, every base follows the letter of its sugar. An asterisk marks phosphorothioate; unmarked linkages are phosphodiester. Other units and linkages are bracketed, terminal groups are in braces. A string of capitals states the bases alone. d = 2'-deoxy (DNA)

Assays:
ICAM-1 [1] = conditions: C8161 human melanoma cells
ICAM-1 [2] = system: ICAM-1
[3] = system: ICAM-1 over HLA-A and HLA-B; conditions: versus HLA-A and HLA-B
[4] = not given; remark: listed apart in the source

ISIS 1939: 2′-oligodeoxynucleotide, phosphorothioate backbone, 5′-CCC-CCA-CCA-CTT-CCC-CTC-TC-3′ (SEQ ID NO:2), targeted to 3′-UTR of human ICAM-1 gene (antisense CCCCCACCACTTCCCCTCTC; DNA, all phosphorothioate, methylation of C not given here)
ICAM-1 expression (mRNA levels, northern blot) (ICAM-1 [1]): markedly reduced ICAM-1 expression

ISIS 2302: 2′-deoxyoligonucleotide, phosphorothioate backbone, 5′-GCC-CAA-GCT-GGC-ATC-CGT-CA-3′ (SEQ ID NO:1), targeted to 3′-UTR of human ICAM-1 gene (antisense dG*dC*dC*dC*dA*dA*dG*dC*dT*dG*dG*dC*dA*dT*dC*dC*dG*dT*dC*dA)
ICAM-1 expression (ICAM-1 [2]; human epidermal carcinoma cells (A431)): inhibit ICAM-1 expression | ICAM-1 expression (ICAM-1 [2]; human keratinocytes): inhibit ICAM-1 expression | ICAM-1 expression (ICAM-1 [2]; human lung carcinoma cells (A549)): inhibit ICAM-1 expression | ICAM-1 expression (ICAM-1 [2]; human umbilical vein cells): inhibit ICAM-1 expression | specificity for target ICAM-1 over other potential nucleic acid targets [3]: demonstrated specificity | ICAM-1 expression (mRNA levels, northern blot) (ICAM-1 [1]): markedly reduced ICAM-1 expression | enhanced metastatic ability of C8161 cells resulting from TNF-α treatment (C8161 cells; TNF-α treated cells): eliminated the enhanced metastatic ability | metastatic potential of C8161 cells (C8161 cells; in vivo): decreased the metastatic potential | anti-inflammatory effects in animal testing (Crohn's disease, rheumatoid arthritis, psoriasis, ulcerative colitis, kidney transplant rejection): strong anti-inflammatory effects | biological activity in animal models of inflammatory disease (in vivo): significant biological activity | activity against Crohn's disease in humans ([4]; humans): activity against Crohn's disease | steroid-sparing effect on treated subjects ([4]; humans, five months post-treatment weaned from steroids and in remission): statistically significant steroid-sparing effect | safety in humans ([4]; in vivo): good safety
